Measurements reported in article PMC11384632, “Protease-activated CendR peptides targeting tenascin-C: mitigating off-target tissue accumulation” (Drug Delivery and Translational Research, 2024).
Peptide text beside a SMILES is read from it. * marks the point of attachment. 5FAM = O=C1OC2(c3ccc(O)cc3Oc3cc(O)ccc32)c2ccc(C(=O)*)cc21; Ahx = NCCCCCC(=O)O

System: orthotopic WT-GBM-bearing nude mice
Test: Biodistribution of monomeric FAM-labeled peptides in WT-GBM mice (anti-FAM DAB immunohistochemistry)
Assay type: in vivo
Conditions: 200 µg i.v., 1 h circulation, perfused, anti-FAM DAB staining, qualitative, n = 3, Fig. 6d
Text: Whereas polyvalent targeting systems, such as bacteriophages and AgNPs used in previous sections, exploit multivalent interactions to enhance specificity and binding efficiency, monovalent targeting systems rely on single ligand-receptor interactions for targeted drug delivery. The choice between these two approaches depends on affinity of the targeting ligand and the pharmacokinetic properties of the therapeutic agent. We next studied in vivo biodistribution of monomeric FAM-labeled SKLG, PL3, and scrambled PL3 control (scrPL3) peptides in WT-GBM tumor-bearing mice. The mice were dosed with FAM-labeled peptides followed by perfusion, tissue collection, sectioning, and detection of the peptides using immunohistochemistry with anti-FAM antibodies.
Fig. 6 Biodistribution of monomeric FAM-labeled peptides in WT-GBM mice. Orthotopic GBM-bearing nude mice were i.v. injected with FAM-labeled scrambled PL3 control (scrPL3), PL3 or SKLG peptides. After 1 h of circulation the mice were anesthetized and perfused. Organs were harvested, sectioned, and parallel sections were immunostained with hematoxylin & eosin (H&E) staining or anti-FAM 3, 3'-diaminobenzidine (DAB) staining. (a) H&E of WT-GBM tumor-bearing brain tissue sections. (b) DAB staining of WT-GBM tumor region in the brain. (c) H&E staining of lung tissue sections. (d) DAB staining of lung tissue sections. […]

Q: With `CC(C)C[C@H](NC(=O)[C@H](CCCNC(=N)N)NC(=O)CNC(=O)[C@H](CCCNC(=N)N)NC(=O)CNC(=O)[C@H](C)NC(=O)[C@H](CCCNC(=N)N)NC(=O)CCCCCNC(=O)c1ccc2c(c1)C(=O)OC21c2ccc(O)cc2Oc2cc(O)ccc21)C(=O)N[C@H](C(=O)O)C(C)C` [scrPL3] ({5FAM-Ahx}-RAGRGRLV-OH) as the compound, how does the “accumulation of FAM-labeled peptide in pulmonary tissue” value read?
A: only a background signal
